Results published in the supplement of paper PMC10307832.

Columns and labels:
Test in all cases: relative viability (nuclei count vs DMSO), 5 days (fraction); higher = more cells survive
Trametinib + Lapatinib = compound: CC(=O)Nc1cccc(-n2c(=O)n(C3CC3)c(=O)c3c(Nc4ccc(I)cc4F)n(C)c(=O)c(C)c32)c1 [Trametinib] + CS(=O)(=O)CCNCc1ccc(-c2ccc3ncnc(Nc4ccc(OCc5cccc(F)c5)c(Cl)c4)c3c2)o1 [Lapatinib] (partner 2 µM)
In short: (§1)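 Cells from lung cancer lines were seeded into 1536-well plates and, one day later, dosed by pin tool. Treatments were either a single drug or a fixed dose of an anchor drug with five library-drug doses (not always all listed) in √10 steps. After 5 days, nuclei were stained in a one-step fixation (final 0.05% Triton X-100, 1% formaldehyde, 1 ug/ml Hoechst) and counted on 4× images, and relative viability is the treated-to-vehicle nuclei ratio, as the median of duplicate plates.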

Trametinib + Crizotinib = compound: CC(=O)Nc1cccc(-n2c(=O)n(C3CC3)c(=O)c3c(Nc4ccc(I)cc4F)n(C)c(=O)c(C)c32)c1 [Trametinib] + C[C@@H](Oc1cc(-c2cnn(C3CCNCC3)c2)cnc1N)c1c(Cl)ccc(F)c1Cl [Crizotinib] (partner 1 µM)
In short: as §1

[1] = compound: CN1C=C(C2=CC=CC=C21)/C=C\3/C4=C(C=CC=N4)NC3=O + CS(=O)(=O)N1CCN(Cc2cc3nc(-c4cccc5[nH]ncc45)nc(N4CCOCC4)c3s2)CC1 [Pictilisib] (partner 1 µM)
In short: as §1

[2] = compound: CN1C=C(C2=CC=CC=C21)/C=C\3/C4=C(C=CC=N4)NC3=O + Nc1ncn([C@H]2C[C@H](O)[C@@H](CO)O2)c(=O)n1 [Decitabine] (partner 2 µM)
In short: as §1

| Cell Line | relative viability (Trametinib + Lapatinib; first compound 0.0025 µM) | relative viability (Trametinib + Lapatinib; first compound 0.007906 µM) | relative viability (Trametinib + Lapatinib; first compound 0.025 µM) | relative viability (Trametinib + Lapatinib; first compound 0.07906 µM) | relative viability (Trametinib + Lapatinib; first compound 0.25 µM) | relative viability (Trametinib + Crizotinib; first compound 0.0025 µM) | relative viability (Trametinib + Crizotinib; first compound 0.007906 µM) | relative viability (Trametinib + Crizotinib; first compound 0.025 µM) | relative viability (Trametinib + Crizotinib; first compound 0.07906 µM) | relative viability (Trametinib + Crizotinib; first compound 0.25 µM) | relative viability ([1]; first compound 0.02 µM) | relative viability ([1]; first compound 0.06325 µM) | relative viability ([1]; first compound 0.2 µM) | relative viability ([1]; first compound 0.6325 µM) | relative viability ([1]; first compound 2 µM) | relative viability ([2]; first compound 0.02 µM) | relative viability ([2]; first compound 0.06325 µM) | relative viability ([2]; first compound 0.2 µM) | relative viability ([2]; first compound 0.6325 µM) | relative viability ([2]; first compound 2 µM) |
| --- | --- | --- | --- | --- | --- | --- | --- | --- | --- | --- | --- | --- | --- | --- | --- | --- | --- | --- | --- | --- |
| COR-L23 | 1.04 | 0.923 | 0.786 | 0.788 | 0.48 | 0.66 | 0.682 | 0.665 | 0.425 | 0.337 | 0.721 | 0.707 | 0.781 | 0.737 | 0.887 | 0.446 | 0.372 | 0.403 | 0.408 | 0.435 |
| EMC-BAC-2 | 0.866 | 0.872 | 0.711 | 0.92 | 0.626 | 0.755 | 0.782 | 0.765 | 0.732 | 0.482 | 0.499 | 0.521 | 0.524 | 0.521 | 0.554 | 0.925 | 0.926 | 1.01 | 0.99 | 1.04 |
| NCI-H1355 | 0.838 | 0.767 | 0.369 | 0.532 | 0.4 | 1.01 | 0.869 | 0.645 | 0.655 | 0.47 | 0.365 | 0.332 | 0.287 | 0.238 | 0.372 | 0.342 | 0.375 | 0.374 | 0.317 | 0.324 |
| NCI-H1792 | 0.976 | 0.79 | 0.682 | 0.535 | 0.417 | 0.92 | 0.949 | 0.738 | 0.553 | 0.488 | 0.247 | 0.223 | 0.214 |  | 0.275 | 0.439 | 0.648 | 0.645 | 0.497 | 0.511 |
| NCI-H1944 | 0.76 | 0.632 | 0.588 | 0.493 | 0.396 | 1 | 0.763 | 0.762 | 0.629 | 0.326 | 0.323 | 0.326 |  | 0.294 | 0.314 | 0.423 | 0.419 |  | 0.415 | 0.416 |
| ABC-1 | 0.789 | 1.16 | 1.18 | 1.13 | 1.2 | 0.99 | 1.03 | 0.972 | 1.07 | 0.634 | 0.774 | 0.681 | 0.682 | 0.663 | 0.608 | 1.3 | 0.941 | 0.829 | 0.909 | 1.15 |
| HOP-62 | 0.949 | 0.903 | 0.387 | 0.39 | 0.104 | 0.925 | 0.932 | 0.581 | 0.502 | 0.209 | 0.729 | 1.05 | 0.475 | 0.627 | 0.937 | 0.184 | 0.206 |  | 0.188 | 0.241 |
| NCI-H2009 | 0.841 | 0.612 | 0.225 | 0.343 | 0.236 | 1.08 | 0.586 | 0.336 | 0.301 | 0.266 | 0.804 | 0.672 | 0.682 | 0.8 | 0.792 | 0.303 | 0.355 | 0.352 | 0.382 | 0.417 |
